Laboratory results from US11945862B2, “Compositions and methods for antibody production” (ImmunoGen, Inc., priority 2017, dated 2024).

Legend:
[1] = tested on: Humanized anti-folate receptor 1 (FOLR1) IgG1; assay: Antibody disulfide reduction by damaged CHO cell supernatant (freeze-thaw), thiol per antibody by Ellman's assay; type: biochemical; settings: for thiol/antibody ratio: about 2.5 hours, control 5.5; for thiol per antibody: 2.2 hours
Protocol: (§1) For all of the examples described below, cell damage was simulated by multiple freeze-thaw cycles of cells, by addition of RIPA buffer (50 mM Tris-HCl, pH 7.4, 1% NP-40, 0.5% sodium deoxycholate, 0.1% sodium dodecylsulfate), or by using microfluidizer. This damaged cell supernatant or lysate was then incubated with a buffered solution containing antibody with or without the anti-reduction agent being tested, following which the extent of the antibody-disulfide reduction was measured using Ellman's assay for thiol (P. W. Riddles, R. L. Blakeley, and B. Zerner, Methods Enzymol., 91, 49-60, 1983) or by non-reducing SDS protein LabChip analysis. The total thiol level present in the mixture of damaged cell supernatant/lysate was measured initially.
(§2) A simulated, damaged CHO cell suspension was prepared using 300 million CHO cells per ml phosphate buffered saline (PBS), which was subjected to three freeze-thaw cycles under vacuum, followed by pelleting of cell debris by centrifugation, and storage of the supernatant at −80° C.
The concentration of thiol in the suspension of damaged CHO cells was measured as 4 mM using DTNB ((5,5′-dithiobis(2-nitrobenzoic acid); Ellman's reagent). Humanized anti-folate receptor 1 (FOLR1) IgG1 (1 mg) was immobilized on 0.05 ml of Protein A bead (RepliGen) and then treated with pre-mixed 0.5 ml PBS and 0.1 ml damaged CHO cell supernatant. The concentration of thiol in this mixture was 0.67 mM.
The sample was rotated for about 2.2 hours at ambient temperature, following which the supernatant was removed and the beads were washed with PBS four times (1.5 ml each). The thiol content of the immobilized antibody on the beads was then analyzed by the addition of 0.6 ml of PBS containing 0.5 mM DTNB, rotation for about 10 minutes, centrifugation, and measurement of the absorbance of the supernatant at 412 nm.
Methylene blue was then tested at different concentrations to determine whether it could protect against disulfide bond reduction during the incubation of antibody with damaged CHO cell supernatant. FIG. 1 is a graph showing the results of immobilized 1 mg humanized IgG1 with pre-mixed 0.5 ml PBS and 0.1 ml damaged CHO cell supernatant in the presence of methylene blue, rotation for 2.2 hours at ambient temperature, and a similar thiol analysis of immobilized antibody as above. Unexpectedly, very low concentrations of methylene blue (0.025 and 0.05 mM) protected against the reduction of antibody disulfide bonds.
In a similar experiment, a sample containing 1 mg immobilized antibody was incubated with a mixture of damaged CHO cell supernatant and 0.05 mM methylene blue for 2.2 hours, followed by washing of beads as above, after which the antibody was eluted from Protein A bead using 100 mM acetic acid containing 150 mM NaCl, neutralized to pH 7 by addition of 1.25 M […] solution. Using an aliquot of the neutralized eluted antibody sample, the thiol per antibody was measured as 0.002 thiol per antibody using DTNB, thus indicating the protection against antibody disulfide reduction by methylene blue. […]

[2] = tested on: CHO cells; assay: Viability of CHO cells after 1 day treatment; settings: 0.75 mM, control 98.9%
[3] = tested on: humanized N901 antibody; assay: Antibody disulfide reduction by CHO cell lysate (RIPA buffer), thiol/antibody by Ellman's assay; type: biochemical; settings: for thiol/antibody ratio: 3 hours, lysate thiol 2.1 mM, control 5.74
Protocol: as §1
The effect of 1,2-naphthoquinone-4-sulfonic acid (NQS) on antibody-disulfide reduction was studied by incubating 1,2-naphthoquinone-4-sulfonic acid at several concentrations with antibody and damaged CHO lysate. The damaged CHO cell lysate was generated by the addition of 0.5 ml RIPA buffer (50 mM Tris-HCl, pH 7.4, 1% NP-40, 0.5% sodium deoxycholate, 0.1% sodium dodecylsulfate) to 100 million CHO cells. The thiol concentration in CHO cell lysate was measured by Ellman's assay as 2.1 mM.
Each sample contained pre-mixed 0.5 ml RIPA buffer (50 mM Tris-HCl, pH 7.4, 1% NP-40, 0.5% sodium deoxycholate, 0.1% sodium dodecylsulfate) with 1 mg humanized N901 antibody, with or without 1,2-naphthoquinone-4-sulfonic acid (25 micromolar, or 50 micromolar, or 100 micromolar), which was added to a cell pellet of 100 million CHO cells, and the resuspended cells were incubated at ambient temperature for 30 minutes, following which the cell debris were pelleted by centrifugation (16,000 g, 5 min). The supernatant from each sample was added to 50 microliter immobilized-Protein A beads (RepliGen) and rotated at ambient temperature for 3 hours, after which the supernatant was removed and the beads washed with PBS.
(§3) The thiol content of the immobilized antibody was determined by the addition of 0.6 ml of PBS containing 0.5 mM DTNB (Ellman's reagent) to the beads, rotation for about 10 minutes, centrifugation, and absorbance measurement of supernatant at 412 nm.
The effect of anthraquinone-2-sulfonic acid (AQS) on antibody-disulfide reduction was studied during co-incubation of anthraquinone-2-sulfonic acid with antibody and damaged CHO lysate. Each sample contained pre-mixed 1 ml RIPA buffer (50 mM Tris-HCl, pH 7.4, 1% NP-40, 0.5% sodium deoxycholate, 0.1% sodium dodecylsulfate) with 1 mg humanized N901 antibody, with or without 0.2 mM anthraquinone-2-sulfonic acid (AQS), which was added to a cell pellet of 100 million CHO cells, and the resuspended cells were incubated at ambient temperature for 30 minutes, following which the cell debris were pelleted by centrifugation (16,000 g, 5 min). The thiol concentration in CHO cell lysate was 1 mM (Ellman's assay).
as §3, with “The supernatant from each sample was added to 50 microliter immobilized-Protein A beads (RepliGen) and rotated at ambient temperature for 3 hours, after which the supernatant was removed and the beads washed with PBS. The” for “The”
In another experiment, 1 mg huN901 antibody was incubated with CHO lysate, with or without 0.4 mM anthraquinone-2-sulfonic acid for 4 hours. The mixture was then analyzed for thiol/antibody as above.
The thiol concentration in CHO cell lysate was 1 mM (Ellman's assay).
The supernatant from each sample was added to 50 microliter immobilized-Protein A beads (RepliGen) and rotated at ambient temperature for 3 hours, after which the supernatant was removed and the beads washed with PBS. […]

[4] = tested on: Humanized FOLR1 IgG1 antibody; assay: Antibody disulfide reduction by CHO cell lysate (RIPA buffer), thiol per antibody by Ellman's assay; type: biochemical; settings: 5 mM agent, 100 mM phosphate buffer pH 7, 2 hours
Protocol: Lysates of CHO cells (˜60 million cells lysed in 0.6 ml RIPA buffer and clarified by centrifugation) were added to each of these mixtures. The pH values of all samples were adjusted to 7. […] The samples were incubated with 200 microliter immobilized-Protein A beads (RepliGen) and rotated at ambient temperature for 3 hours, after which the supernatant was removed and the beads washed with PBS. The thiol content of the immobilized antibody was determined by the addition of 0.2 ml of PBS containing 0.5 mM DTNB (Ellman's reagent) to the beads, rotation for about 10 minutes, centrifugation, and absorbance measurement of the supernatant at 412 nm.
The pH values of all samples were adjusted to 7. The samples were incubated with 200 microliter immobilized-Protein A beads (RepliGen) and rotated at ambient temperature for 3 hours, after which the supernatant was removed and the beads washed with PBS. The thiol content of the immobilized antibody was determined by the addition of 0.2 ml of PBS containing 0.5 mM DTNB (Ellman's reagent) to the beads, rotation for about 10 minutes, centrifugation, and absorbance measurement of the supernatant at 412 nm.
To test the effect of L-cystine bis(t-butyl ester) (CDBE) on protecting antibody disulfide bonds from reduction by CHO lysate, humanized FOLR1 IgG1 antibody (2 mg) was incubated with CHO lysate in RIPA buffer (0.6 ml lysate of 60 million CHO cells in 0.6 ml RIPA buffer, clarified by centrifugation) without or with 0.5 or 1 mM CDBE. The samples were rotated at ambient temperature with 200 microliter immobilized-Protein A beads (RepliGen) for 2 hours, after which the supernatant was removed and the beads washed with PBS. The thiol content of the immobilized antibody was determined by the addition of 0.2 ml of PBS containing 0.5 mM DTNB (Ellman's reagent) to the beads, centrifugation, and absorbance measurement of the supernatant at 412 nm.
The samples were rotated at ambient temperature with 200 microliter immobilized-Protein A beads (RepliGen) for 2 hours, after which the supernatant was removed and the beads washed with PBS. The thiol content of the immobilized antibody was determined by the addition of 0.2 ml of PBS containing 0.5 mM DTNB (Ellman's reagent) to the beads, centrifugation, and absorbance measurement of the supernatant at 412 nm.

[5] = tested on: Humanized N901 (Anti-CD56 IgG1); assay: Antibody disulfide reduction by damaged CHO cell supernatant (freeze-thaw), thiol per antibody by Ellman's assay; type: biochemical; settings: for thiol per antibody: about 1.5 hours, control 6.4; for thiol per antibody / protection toward antibody-disulfide reduction: total thiol 0.8 mM; for protection toward antibody-disulfide reduction: 0.2 and 0.1 mM agent; for thiol/antibody ratio: about 2.5 hours, total thiol 0.4 mM, control 1.99
Protocol: as §1, §2
Humanized N901 (Anti-CD56 IgG1; 1 mg) was immobilized on 0.05 ml of Protein A bead (RepliGen) and then treated with pre-mixed 0.4 ml PBS and 0.1 ml damaged CHO cell supernatant (described in Example 1) with or without the addition of coenzyme Q analogs. The concentration of thiol in these mixtures was 0.8 mM.
The samples were rotated for about 1.5 hours at ambient temperature, following which the supernatant was removed and the beads washed with PBS three times. The thiol content of the immobilized antibody on the beads was then analyzed by the addition of 0.6 ml of mixture of PBS and 0.5 mM DTNB, rotation for about 10 minutes, centrifugation, and measurement of the absorbance of the supernatant at 412 nm. The number of thiol residues per antibody molecule after incubation with damaged CHO cell supernatant (without any coenzyme Q analog) was measured as 6.4 thiol/antibody.
Humanized N901 IgG1 (1 mg) was immobilized on 0.05 ml of Protein A bead (RepliGen) and treated with pre-mixed 0.45 ml PBS and 0.05 ml damaged CHO cell supernatant with or without 0.1 mM and 0.2 mM disulfiram (also named as tetraethylthiuram disulfide; added using a stock solution of disulfiram in DMSO). The concentration of total thiol (derived from damaged cells) in this mixture was 0.4 mM.
The samples were rotated for about 2.5 hours at ambient temperature, then centrifuged to pellet beads, following which the supernatants were removed and the beads washed with PBS four times. The thiol content of the immobilized antibody on the beads was then analyzed by the addition of 0.6 ml PBS containing 0.5 mM DTNB to the beads, rotation for about 30 minutes, centrifugation, and measurement of the absorbance of the supernatant at 412 nm.

[6] = Redox potential of antibody solution with media additive over a range of DTT concentrations; type: physicochemical; settings: 1 mM additive, DTT 0.34 μM to 170 μM, 37° C., 1 h
[7] = tested on: M9346A antibody; type: biochemical; settings: 1 mM additive
Protocol: Antibody reduction was induced in a biological assay by adding cell lysate to purified monoclonal antibody. […]. Increasing amounts of CHO cell lysate were added to mimic different percentages of cell lysis, ranging from […]. Fresh NADPH was added to a concentration of 400 μM. The mixtures were incubated in a water bath at 37° C. for 1 h. Free thiols were alkylated by addition of 10% (v/v) of 50 mM N-ethyl-maleimide (NEM) solution. Samples were analyzed by non-reduced sodium dodecyl sulfate denaturing capillary electrophoresis (NR-CE-SDS).
To test the capacity for protection further, the stringency of the assay was increased. […].

## O=C(O)CCCCC1CCSS1 (racemic) [lipoic acid, 1,2-dithiolane-3-pentanoic acid]
[1]; 0.5 mM agent, total thiol 0.67 mM
  thiol/antibody ratio: 1.88
[1]; 2 mM agent, total thiol 0.67 mM
  thiol/antibody ratio: 1.08
[2]
  viability of CHO cells: 98.1%

## CCOC(=O)[C@@H](N)CSSC[C@H](N)C(=O)OCC [CDEE, L-cystine diethyl ester]
[3]; 0.75 mM agent, 4° C. overnight, control 2.29
  thiol/antibody: 1.02 thiol/antibody

## CC(=O)N[C@@H](CSSC[C@H](NC(C)=O)C(=O)O)C(=O)O [Di-N-acetyl L-cystine]
[4]
  decrease in disulfide reduction compared to the control: about 64%
[4]; control 1.16
  thiol per antibody: about 0.42 thiol per antibody

## O=C1C=C(S(=O)(=O)O)c2ccccc2C1=O [NQS, 1,2-naphthoquinone-4-sulfonic acid]
[3]; 0.025 mM agent
  thiol/antibody ratio: 3.4
[3]; 0.05 mM agent
  thiol/antibody ratio: 2.2
[3]; 0.1 mM agent
  thiol/antibody ratio: 1.25

## COC1=C(OC)C(=O)C(C)=CC1=O [coenzyme Q0, 2,3-dimethoxy-5-methyl-p-benzoquinone]
[5]; 0.1 mM agent
  thiol per antibody: 0.63 thiol per antibody
[5]; 0.2 mM agent
  thiol per antibody: 0.34 thiol per antibody

## COC1=C(OC)C(=O)C(C/C=C(\C)CCC=C(C)C)=C(C)C1=O [coenzyme Q2, 2,3-dimethoxy-5-methyl-6-geranyl-p-benzoquinone]
[5]
  protection toward antibody-disulfide reduction: decreased antibody disulfide-reduction

## COC1=C(OC)C(=O)C(C/C=C(\C)CC/C=C(\C)CC/C=C(\C)CC/C=C(\C)CC/C=C(\C)CC/C=C(\C)CC/C=C(\C)CC/C=C(\C)CC/C=C(\C)CCC=C(C)C)=C(C)C1=O [coenzyme Q10, reference compound]
[5]
  protection toward antibody-disulfide reduction: did not show significant protection

## N[C@@H](CS)C(=O)O [cysteine, reference compound]
[6]
  modulation of redox potential: constant redox potential at low concentrations of DTT, followed by a slow decrease at higher DTT concentrations
[7]; lysate mimicking 120% cell lysis, 400 μM NADPH, 37° C., 1 h, control 40%
  intact antibody: ~70%

## N[C@@H](CSSC[C@H](N)C(=O)O)C(=O)O [cystine]
[6]
  modulation of redox potential: step-wise modulation of redox potential

## CCN(CC)C(=S)SSC(=S)N(CC)CC [disulfiram, tetraethylthiuram disulfide, reference compound]
[5]; 0.1 mM agent
  thiol/antibody ratio: 0.14
[5]; 0.2 mM agent
  thiol/antibody ratio: 0.03

## CN(C)c1ccc2nc3ccc(N(C)C)cc3[s+]c2c1 [methylene blue, Methylene blue]
[1]; 0.025 mM agent, total thiol 0.67 mM, control 4.2
  thiol per antibody: 0.38 thiol per antibody
[1]; 0.05 mM agent, antibody eluted from Protein A bead and neutralized
  thiol per antibody: 0.002 thiol per antibody
[1]; 0.05 mM agent, total thiol 0.67 mM, control 4.2
  thiol per antibody: 0.33 thiol per antibody

## O=S(=O)([O-])[O-].[Zn+2] [zinc]
[7]; conditions where control without additive was 100% fragmented
  protection at increased assay stringency: protective of disulfide reduction

## oxidized glutathione [GSSG]
[3]; 2 mM GSSG alone, 2.5 hours, lysate thiol 1 mM, control 5.63
  thiol/antibody: 0.98 thiol/antibody
